Measured values from patent publication US5132111A (priority 1990, dated 1992).
Non-standard residues stand in square brackets, D forms with d. Residues, ends and D or L forms follow the SMILES beside them. Nle = CCCC[C@H](N)C(=O)O

These compounds were tested on cultured rat pituitary cells.
Assay type: cell-based
For CCCC[C@H](NC(=O)[C@@H](NC(=O)[C@H](CC(C)C)NC(=O)[C@H](CC(=O)O)NC(=O)[C@H](CC(C)C)NC(=O)[C@H](CO)NC(=O)[C@@H](NC(=O)[C@@H]1CCCN1C(=O)[C@@H]1CCCN1C(=O)[C@@H](N)CCC(=O)O)[C@@H](C)CC)[C@@H](C)O)C(=O)N[C@@H](Cc1c[nH]cn1)C(=O)N[C@@H](CC(C)C)C(=O)N[C@@H](CC(C)C)C(=O)N[C@@H](CCCNC(=N)N)C(=O)N[C@@H](CCC(=O)O)C(=O)N[C@H](C(=O)N[C@@H](CC(C)C)C(=O)N[C@@H](CCC(=O)O)C(=O)N[C@@H](CCSC)C(=O)N[C@@H](C)C(=O)N[C@@H](CCCNC(=N)N)C(=O)N[C@@H](C)C(=O)N[C@@H](CCC(=O)O)C(=O)N[C@@H](CCC(N)=O)C(=O)N[C@@H](CC(C)C)C(=O)N[C@@H](C)C(=O)N[C@@H](CCC(=O)O)C(=O)N[C@@H](CCC(N)=O)C(=O)N[C@@H](C)C(=O)N[C@@H](Cc1c[nH]cn1)C(=O)N[C@@H](CO)C(=O)N[C@@H](CC(N)=O)C(=O)N[C@@H](CCCNC(=N)N)C(=O)N[C@@H](CCCNC(=N)N)C(=O)N[C@@H](CC(C)C)C(=O)N[C@@H](CCSC)C(=O)N[C@@H](CCC(=O)O)C(=O)N[C@H](C(=O)N[C@H](C(N)=O)[C@@H](C)CC)[C@@H](C)CC)C(C)C (H-EPPISLDLT[Nle]HLLREVLEMARAEQLAEQAHSNRRLMEII-NH2), the “secretion of ACTH” value was “stimulates” and the “secretion of β-endorphin (β-END-LI)” value was “stimulates”. In the case of CCCC[C@H](NC(=O)[C@H](CCC(=O)O)NC(=O)[C@H](CCCNC(=N)N)NC(=O)[C@H](CC(C)C)NC(=O)[C@H](CC(C)C)NC(=O)[C@H](Cc1c[nH]cn1)NC(=O)[C@H](Cc1ccccc1)NC(=O)[C@@H](NC(=O)[C@H](CC(C)C)NC(=O)[C@H](CC(=O)O)NC(=O)[C@H](CC(C)C)NC(=O)[C@H](CO)NC(=O)[C@@H](NC(=O)[C@@H]1CCCN1C(=O)[C@@H]1CCCN1C(=O)[C@H](CCC(=O)O)NC(=O)[C@@H](N)CCC(N)=O)[C@@H](C)CC)[C@@H](C)O)C(=O)N[C@@H](CC(C)C)C(=O)N[C@@H](CCC(=O)O)C(=O)N[C@@H](CCSC)C(=O)N[C@H](C(=O)N[C@@H](CCCNC(=N)N)C(=O)N[C@@H](C)C(=O)N[C@@H](CC(=O)O)C(=O)N[C@@H](CCC(N)=O)C(=O)N[C@@H](CC(C)C)C(=O)N[C@@H](C)C(=O)N[C@@H](CCC(N)=O)C(=O)N[C@@H](CCC(N)=O)C(=O)N[C@@H](C)C(=O)N[C@@H](Cc1c[nH]cn1)C(=O)N[C@@H](CO)C(=O)N[C@@H](CC(N)=O)C(=O)N[C@@H](CCCNC(=N)N)C(=O)N[C@@H](CCCNC(=N)N)C(=O)N[C@@H](Cc1ccc(O)cc1)C(=O)N[C@@H](CC(C)C)C(=O)N[C@@H](CC(=O)O)C(=O)N[C@@H](CCC(=O)O)C(=O)N[C@@H](C)C(N)=O)[C@@H](C)O (H-QEPPISLDLTFHLLRE[Nle]LEMTRADQLAQQAHSNRRYLDEA-NH2), the “secretion of ACTH” value is reported as “stimulates” and the “secretion of β-endorphin (β-END-LI)” value is reported as “stimulates”. CCCC[C@H](NC(=O)[C@H](CCC(=O)O)NC(=O)[C@H](CC(C)C)NC(=O)[C@H](CCCC)NC(=O)[C@H](CCC(=O)O)NC(=O)[C@H](CCCNC(=N)N)NC(=O)[C@H](CC(C)C)NC(=O)[C@H](CC(C)C)NC(=O)[C@H](Cc1c[nH]cn1)NC(=O)[C@H](Cc1ccccc1)NC(=O)[C@@H](NC(=O)[C@H](CC(C)C)NC(=O)[C@H](CC(=O)O)NC(=O)[C@H](CC(C)C)NC(=O)[C@H](CO)NC(=O)[C@@H](NC(=O)[C@@H]1CCCN1C(=O)[C@H]1CCCN1)[C@@H](C)CC)[C@@H](C)O)C(=O)N[C@@H](C)C(=O)N[C@@H](CCCNC(=N)N)C(=O)N[C@@H](C)C(=O)N[C@@H](CCC(=O)O)C(=O)N[C@@H](CCC(N)=O)C(=O)N[C@@H](CCC(=O)O)C(=O)N[C@@H](C)C(=O)N[C@@H](CCC(=O)O)C(=O)N[C@@H](CCC(N)=O)C(=O)N[C@@H](C)C(=O)N[C@@H](C)C(=O)N[C@@H](CC(C)C)C(=O)N[C@@H](CC(N)=O)C(=O)N[C@@H](CCCNC(=N)N)C(=O)N[C@@H](CC(C)C)C(=O)N[C@@H](CC(C)C)C(=O)N[C@@H](CC(C)C)C(=O)N[C@@H](CCC(=O)O)C(=O)N[C@@H](CCC(=O)O)C(=O)N[C@@H](C)C(N)=O [[D-Pro^4, Nle^18,21]-AAHC(4-41)] (H-[dP]PISLDLTFHLLRE[Nle]LE[Nle]ARAEQEAEQAALNRLLLEEA-NH2) was tested, and the “secretion of ACTH” value was “stimulates” and the “secretion of β-endorphin (β-END-LI)” value was “stimulates”.
